In ChEMBL document CHEMBL3390836, “Mannich- and LedererManasse-based analogues of the natural product S-(+)-curcuphenol as cancer proliferation and migration inhibitors” (Medchemcomm, 2012):

Assays:
Type in all cases: functional
[1] = system: KM12; test: Cytotoxicity against human KM12 cells assessed as cell growth at 10^-6 M after 48 hrs by SRB assay relative to control; conditions: KM12, 48 h, read-out: Activity
[2] = system: IGROV-1; test: Cytotoxicity against human IGROV1 cells assessed as cell growth at 10^-7 M after 48 hrs by SRB assay relative to control; conditions: IGROV-1, 48 h, read-out: Activity
[3] = system: MCF7; test: Cytotoxicity against human MCF7 cells assessed as cell growth at 10^-8 M after 48 hrs by SRB assay relative to control; conditions: MCF7, 48 h, read-out: Activity
[4] = system: SNB-75; test: Cytotoxicity against human SNB75 cells after 48 hrs by SRB assay; conditions: SNB-75, 48 h
[5] = system: RXF 393; test: Cytotoxicity against human RXF393 cells assessed as cell growth at 10^-4 M after 48 hrs by SRB assay relative to control; conditions: RXF 393, 48 h, read-out: Activity
[6] = Cytotoxicity against human PC3 cells assessed as cell growth at 10^-4 M after 48 hrs by SRB assay relative to control; conditions: PC-3, 48 h, read-out: Activity
[7] = system: SK-MEL-5; test: Cytotoxicity against human SK-MEL-5 cells assessed as cell growth at 10^-4 M after 48 hrs by SRB assay relative to control; conditions: SK-MEL-5, 48 h, read-out: Activity
[8] = Cytotoxicity against human OVCAR5 cells after 48 hrs by SRB assay; conditions: OVCAR-5, 48 h; for CC50: read-out: LC50 (the source's name)
[9] = system: HOP-62; test: Cytotoxicity against human HOP62 cells assessed as cell growth at 10^-4 M after 48 hrs by SRB assay relative to control; conditions: HOP-62, 48 h, read-out: Activity
[10] = system: MDA-MB-468; test: Cytotoxicity against human MDA-MB-468 cells assessed as cell growth at 10^-7 M after 48 hrs by SRB assay relative to control; conditions: MDA-MB-468, 48 h, read-out: Activity
[11] = Cytotoxicity against human UACC62 cells assessed as cell growth at 10^-7 M after 48 hrs by SRB assay relative to control; conditions: UACC-62, 48 h, read-out: Activity
[12] = system: Malme-3M; test: Cytotoxicity against human MALME-3M cells assessed as cell growth at 10^-8 M after 48 hrs by SRB assay relative to control; conditions: read-out: Activity
[13] = Cytotoxicity against human SKOV3 cells assessed as cell growth at 10^-6 M after 48 hrs by SRB assay relative to control; conditions: SK-OV-3, 48 h, read-out: Activity
[14] = system: SN12C; test: Cytotoxicity against human SN12C cells assessed as cell growth at 10^-7 M after 48 hrs by SRB assay relative to control; conditions: read-out: Activity
[15] = Cytotoxicity against human HCT116 cells assessed as cell growth at 10^-4 M after 48 hrs by SRB assay relative to control; conditions: HCT-116, 48 h, read-out: Activity
[16] = system: MCF7; test: Cytotoxicity against human MCF7 cells assessed as cell growth at 10^-6 M after 48 hrs by SRB assay relative to control; conditions: MCF7, 48 h, read-out: Activity
[17] = system: K562; test: Cytotoxicity against human K562 cells assessed as cell growth at 10^-7 M after 48 hrs by SRB assay relative to control; conditions: K562, 48 h, read-out: Activity
[18] = Cytotoxicity against human SKOV3 cells assessed as cell growth at 10^-4 M after 48 hrs by SRB assay relative to control; conditions: SK-OV-3, 48 h, read-out: Activity
[19] = Cytotoxicity against human UACC62 cells assessed as cell growth at 10^-6 M after 48 hrs by SRB assay relative to control; conditions: UACC-62, 48 h, read-out: Activity
[20] = Cytotoxicity against human OVCAR8 cells assessed as cell growth at 10^-7 M after 48 hrs by SRB assay relative to control; conditions: OVCAR-8, 48 h, read-out: Activity
[21] = system: MDA-MB-231; test: Cytotoxicity against human MDA-MB-231 cells after 48 hrs by SRB assay; conditions: MDA-MB-231, 48 h
[22] = Cytotoxicity against human Hs 578T cells after 48 hrs by SRB assay
[23] = system: HT-29; test: Cytotoxicity against human HT-29 cells after 48 hrs by SRB assay; conditions: HT-29, 48 h; for CC50: read-out: LC50 (the source's name)
[24] = system: ACHN; test: Cytotoxicity against human ACHN cells assessed as cell growth at 10^-7 M after 48 hrs by SRB assay relative to control; conditions: read-out: Activity
[25] = Cytotoxicity against human UO31 cells after 48 hrs by SRB assay; conditions: UO-31, 48 h
[26] = system: NCI-H322M; test: Cytotoxicity against human NCI-H322M cells assessed as cell growth at 10^-7 M after 48 hrs by SRB assay relative to control; conditions: read-out: Activity
[27] = system: BT-549; test: Cytotoxicity against human BT549 cells assessed as cell growth at 10^-7 M after 48 hrs by SRB assay relative to control; conditions: BT-549, 48 h, read-out: Activity
[28] = system: HCC 2998; test: Cytotoxicity against human HCC2998 cells assessed as cell growth at 10^-8 M after 48 hrs by SRB assay relative to control; conditions: HCC 2998, 48 h, read-out: Activity
[29] = system: NCI-H226; test: Cytotoxicity against human NCI-H226 cells assessed as cell growth at 10^-7 M after 48 hrs by SRB assay relative to control; conditions: NCI-H226, 48 h, read-out: Activity
[30] = system: U-251; test: Cytotoxicity against human U251 cells assessed as cell growth at 10^-8 M after 48 hrs by SRB assay relative to control; conditions: U-251, 48 h, read-out: Activity
[31] = Cytotoxicity against human UO31 cells assessed as cell growth at 10^-8 M after 48 hrs by SRB assay relative to control; conditions: UO-31, 48 h, read-out: Activity
[32] = Cytotoxicity against human OVCAR3 cells assessed as cell growth at 10^-8 M after 48 hrs by SRB assay relative to control; conditions: OVCAR-3, 48 h, read-out: Activity
[33] = Cytotoxicity against human OVCAR8 cells after 48 hrs by SRB assay; conditions: OVCAR-8, 48 h; for CC50: read-out: LC50 (the source's name)
[34] = system: SF-295; test: Cytotoxicity against human SF295 cells assessed as cell growth at 10^-6 M after 48 hrs by SRB assay relative to control; conditions: SF-295, 48 h, read-out: Activity
[35] = Cytotoxicity against human OVCAR8 cells assessed as cell growth at 10^-8 M after 48 hrs by SRB assay relative to control; conditions: OVCAR-8, 48 h, read-out: Activity
[36] = system: A549; test: Cytotoxicity against human A549 cells assessed as cell growth at 10^-6 M after 48 hrs by SRB assay relative to control; conditions: A549, 48 h, read-out: Activity

## COc1ccc(CCN2COc3c([C@@H](C)CCC=C(C)C)ccc(C)c3C2)cc1OC
[1]
  growth at 1 µM: 93%
[2]
  growth at 0.1 µM: 97%
[3]
  growth at 0.01 µM: 91%
[4]
  GI50: 12.5 µM
  LC50: > 100 µM
  TGI: 35.4 µM
[5]
  growth at 100 µM: -92%
[6]
  growth at 100 µM: -61%
[7]
  growth at 100 µM: -100%
[8]
  GI50: 8.53 µM
  TGI: 20.8 µM
  CC50: 45.6 µM
[9]
  growth at 100 µM: 100%
[10]
  growth at 0.1 µM: 60%
[11]
  growth at 0.1 µM: 90%
[12]
  growth at 0.01 µM: 91%
[13]
  growth at 1 µM: 102%
[14]
  growth at 0.1 µM: 89%
[15]
  growth at 100 µM: -100%
[16]
  growth at 1 µM: 99%
[17]
  growth at 0.1 µM: 95%
[18]
  growth at 100 µM: -60%
[19]
  growth at 1 µM: 86%
[20]
  growth at 0.1 µM: 95%
[21]
  GI50: 2.76 µM
  LC50: 34.5 µM
  TGI: 9.37 µM
[22]
  GI50: 3.94 µM
  LC50: 65.2 µM
  TGI: 17.3 µM
[23]
  GI50: 2.2 µM
  TGI: 5.73 µM
  CC50: 22.4 µM
[24]
  growth at 0.1 µM: 94%
[25]
  GI50: 2.45 µM
  LC50: 36.4 µM
  TGI: 12.3 µM
[26]
  growth at 0.1 µM: 95%
[27]
  growth at 0.1 µM: 91%
[28]
  growth at 0.01 µM: 77%
[29]
  growth at 0.1 µM: 88%
[30]
  growth at 0.01 µM: 92%
[31]
  growth at 0.01 µM: 86%
[32]
  growth at 0.01 µM: 95%
[33]
  GI50: 4.21 µM
  TGI: 20.2 µM
  CC50: 89.5 µM
[34]
  growth at 1 µM: 80%
[35]
  growth at 0.01 µM: 86%
[36]
  growth at 1 µM: 95%

## CC(C)=CCC[C@H](C)c1ccc(C)c(CNCC2CCNCC2)c1O
[1]
  growth at 1 µM: 93%
[2]
  growth at 0.1 µM: 97%
[3]
  growth at 0.01 µM: 90%
[4]
  GI50: 3.89 µM
  LC50: > 25 µM
  TGI: 12.3 µM
[5]
  growth at 100 µM: -24%
[6]
  growth at 100 µM: 6%
[7]
  growth at 100 µM: 100%
[8]
  GI50: 9.56 µM
  TGI: > 25 µM
  CC50: > 25 µM
[9]
  growth at 100 µM: -74%
[10]
  growth at 0.1 µM: 77%
[11]
  growth at 0.1 µM: 90%
[12]
  growth at 0.01 µM: 97%
[13]
  growth at 1 µM: 104%
[14]
  growth at 0.1 µM: 91%
[15]
  growth at 100 µM: -39%
[16]
  growth at 1 µM: 93%
[17]
  growth at 0.1 µM: 99%
[18]
  growth at 100 µM: 8%
[19]
  growth at 1 µM: 86%
[20]
  growth at 0.1 µM: 104%
[21]
  GI50: 3.48 µM
  LC50: 19.3 µM
  TGI: 8.19 µM
[22]
  GI50: 6.53 µM
  LC50: > 25 µM
  TGI: > 25 µM
[23]
  GI50: 4.51 µM
  TGI: 9.45 µM
  CC50: 19.8 µM
[24]
  growth at 0.1 µM: 94%
[25]
  GI50: 3.58 µM
  LC50: > 25 µM
  TGI: 12.3 µM
[26]
  growth at 0.1 µM: 94%
[27]
  growth at 0.1 µM: 89%
[28]
  growth at 0.01 µM: 101%
[29]
  growth at 0.1 µM: 79%
[30]
  growth at 0.01 µM: 96%
[31]
  growth at 0.01 µM: 88%
[32]
  growth at 0.01 µM: 105%
[33]
  GI50: 4.35 µM
  TGI: 9.66 µM
  CC50: 21.5 µM
[34]
  growth at 1 µM: 86%
[35]
  growth at 0.01 µM: 95%
[36]
  growth at 1 µM: 98%

## CC(C)=CCC[C@H](C)c1ccc(C)c2c1OCN(CC1CCNCC1)C2
[1]
  growth at 1 µM: 103%
[2]
  growth at 0.1 µM: 107%
[3]
  growth at 0.01 µM: 98%
[4]
  GI50: 11.9 µM
  LC50: 49.6 µM
  TGI: 24.3 µM
[5]
  growth at 100 µM: -93%
[6]
  growth at 100 µM: -46%
[7]
  growth at 100 µM: -85%
[8]
  GI50: 14.3 µM
  TGI: 28.8 µM
  CC50: 57.7 µM
[9]
  growth at 100 µM: -94%
[10]
  growth at 0.1 µM: 94%
[11]
  growth at 0.1 µM: 96%
[12]
  growth at 0.01 µM: 92%
[13]
  growth at 1 µM: 100%
[14]
  growth at 0.1 µM: 102%
[15]
  growth at 100 µM: -80%
[16]
  growth at 1 µM: 104%
[17]
  growth at 0.1 µM: 99%
[18]
  growth at 100 µM: -94%
[19]
  growth at 1 µM: 101%
[20]
  growth at 0.1 µM: 101%
[21]
  GI50: 12.5 µM
  LC50: 64.1 µM
  TGI: 28.3 µM
[22]
  GI50: 13.3 µM
  LC50: 67 µM
  TGI: 29.9 µM
[23]
  GI50: 3 µM
  TGI: 8.38 µM
  CC50: 53 µM
[24]
  growth at 0.1 µM: 105%
[25]
  GI50: 12.8 µM
  LC50: 58.2 µM
  TGI: 27.3 µM
[26]
  growth at 0.1 µM: 99%
[27]
  growth at 0.1 µM: 87%
[28]
  growth at 0.01 µM: 111%
[29]
  growth at 0.1 µM: 98%
[30]
  growth at 0.01 µM: 99%
[31]
  growth at 0.01 µM: 95%
[32]
  growth at 0.01 µM: 99%
[33]
  GI50: 18.4 µM
  TGI: 34.5 µM
  CC50: 64.6 µM
[34]
  growth at 1 µM: 87%
[35]
  growth at 0.01 µM: 106%
[36]
  growth at 1 µM: 96%
